Assay results as given in paper PMC11679793, “Structure-Activity Relationship Study of Majusculamide D: Overcoming Metabolic Instability and Severe Toxicity with a Fluoro Analogue” (Marine Drugs, 2024).

Assays:
pancreatic cancer cells [1] = test: Clone formation assay; format: cell-based; conditions: 48 h treatment then 10 days culture, concentration-dependent, vs control
Source text: dependent manner (Figure S1C). […]
growth and survival of pancreatic cancer cells. […]
Snail and TCF8/ZEB1 both […]
are transcription factors that can inhibit the expression of E-cadherin and promote the EMT process. Vimentin is a marker protein of mesenchymal cells, and its expression increases during EMT, further contribute to the process of metastasis by supporting the structural changes needed for cell migration and invasion.
We examined the effects of compound 1a on above key proteins involved in tumor progression pathways employing Western blot analysis in PANC-1 cells and MIA PaCa-2 […]
1a might inhibit cancer cell invasion and migration by enhancing cell-cell adhesion and barrier function. Conversely, the expression levels of β-catenin, Fibronectin, Snail, […]
Cells were resuspended at a concentration of 300 cells/mL, and 2 mL of the suspension was added to each well of a 6-well plate. After the cells adhered to the plate, the compound was added, and the cells were incubated for 48 hours, followed by replacement with fresh medium. The cells were then cultured for an additional 10 days. Subsequently, the cells were fixed with methanol and stained with crystal violet. The colonies were imaged under a microscope and quantified using ImageJ.
The BeyoClick™ EdU-488 Cell Proliferatio n Assay Kit (Beyotime Biotechnology, China) was used according to the manufacturer's instructions. […]

[2] = Stability in mouse plasma assay; format: in vitro ADME; conditions: 1 μM, 37 °C, 2 h incubation
Protocol: Thaw plasma at room temperature and vortex for 3–5 s. Centrifuge at 3000 rpm at 10 °C for 10 min, and carefully transfer the supernatant to a new Eppendorf tube. Preincubate the plasma at 37 °C for 10 min. Prepare a series of test substances by adding 3 μL of the compound (100 μM) to 297 μL of plasma to achieve a final concentration of 1 μM, ensuring that the DMSO concentration in plasma is 1%. Propantheline bromide is used as a positive control. Incubate the mixture at 37 °C, and at specified time points (0, 1, 2, 4, and 24 h), take 50 μL of the plasma sample. To terminate the reaction, add 250 μL of acetonitrile (containing an internal standard), vortex thoroughly, and centrifuge at 16,000 rcf (4 °C) for 10 min. Collect 130 μL of the supernatant and dilute with 70 μL of pure water for LC-MS/MS analysis. The concentration of the test substances in plasma samples was determined using LC-MS/MS. The stability of the test substance in plasma was evaluated by measuring the remaining percentage of the compound in the plasma over time.

PANC-1 xenograft tumor = test system: PANC-1 xenograft tumor
Protocol: Furthermore, a xenografted murine subcutaneous tumor model was employed to evaluate the effects of majusculamide D and the optimized analogues 1c and 1n (Figure 1B). PANC1-bearing BALB/c nude mice were separated randomly, with a total of six mice in each group. Gemcitabine was chosen as the positive drug; the mice were then administered intravenous doses of 1c (5 mg/kg), 1n (5 mg/kg), 1a (5 mg/kg), and gemcitabine (20 mg/kg) every other day for 24 days.
A total of 4 × 10^6 PANC-1 cells suspended in 100 μL PBS were subcutaneously injected into the right shoulder region of BALB/c nude mice. When the tumor volume reached approximately 200 mm^3, the mice were euthanized, and the tumor tissues were harvested and designated as F1 generation. Tumor tissues were then cut into small cubes measuring approximately 3 × 3 × 3 mm, which were implanted into new BALB/c mice to propagate the tumors. This procedure was repeated to obtain the F2 generation of tumors. Finally, mice bearing F3 generation transplant tumors were used for drug treatment experiments. When the tumor volume reached approximately 80–100 mm^3, the mice were randomly divided into five groups (n = 6): control group, 5 mg/kg compound 1a group, 5 mg/kg compound 1c group, 5 mg/kg compound 1n group, and 20 mg/kg gemcitabine group. The compounds 1a, 1c, and 1n were dissolved in DMSO and then diluted with 0.9% physiological saline to achieve a final concentration of 0.5 mg/mL as the dosing concentration. Gemcitabine was dissolved directly in 0.9% saline to achieve a final concentration of 2 mg/mL as the dosing concentration. The compounds were administered intravenously every two days, alternating between the left and right tail veins to minimize vein damage. Injections were performed using ultra-fine syringes (30G needles) to reduce stress and ensure consistent delivery. The body weight and tumor volume of the mice were measured every four days. On day 24, the mice were euthanized, and the tumor weights were recorded. Tumor volume (V) was calculated using the formula: V = (ab^2)/2, with “a” representing the long diameter of the tumor and “b” representing the short diameter of the tumor. […] Tumor weight was used to calculate the tumor inhibition rate (Figure 1G).

pancreatic cancer cells [3] = test system: pancreatic cancer cells; parameters: method as in PMID 30673235; conditions: cited from earlier work

CCCCC(C)CC(C)C(=O)N(C)C(Cc1ccc(OC)cc1)C(=O)NC(C(=O)N(C)C(C(=O)N1CC(O)CC1C(=O)N1C(=O)C=CC1C)C(C)C)C(C)OC(C)=O (centres unmarked) [Compound 1a, Majusculamide D]
colony formation (pancreatic cancer cells [1]): remarkably reduced colony formation
remaining percentage in mouse plasma after 2 h [2]: 54.7%
mortality rate among the mice (PANC-1 xenograft tumor; 5 mg/kg i.v. every other day, 24 days, n = 6): 50%
mice dead in treated group (PANC-1 xenograft tumor; 5 mg/kg i.v., xenografted mouse model, six mice per group): 3 mice
tumor inhibition rate (%) (PANC-1 xenograft tumor; calculated from tumor weight, day 24, 1a, 1c, 1n 5 mg/kg, gemcitabine 20 mg/kg i.v.): 64.8%
tumor weight (PANC-1 xenograft tumor; day 24, i.v. every other day, 1a, 1n 5 mg/kg, gemcitabine 20 mg/kg, mean ± SD): 0.393 ± 0.049 g
tumor volume (PANC-1 xenograft tumor; i.v. every other day for 24 days, 1a, 1n 5 mg/kg, gemcitabine 20 mg/kg, mean ± SD, n = 6): 353.0 ± 66.7 mm^3
selectivity against pancreatic cancer cells in vitro (pancreatic cancer cells [3]): up to 4 × 10^3
